The results in this text go back to ChEMBL document CHEMBL1151376, “Inhibition of Mitochondrial Function in Termite Queen Ovary by Rabdosia Diterpenoids” (J Nat Prod, 1981).

Format in all cases: functional
What all share (settings): Female gonad

Test [1] has as its system Macrotermes subhyalinus. Description: Inhibition of oxidative phosphorylation in Macrotermes subhyalinus ovary mitochondria assessed as respiratory control ratio assessed oxygen atom per mg protein per min at 100 uM.
Test [2] has as its system Macrotermes subhyalinus. Description: Inhibition of oxidative phosphorylation in Macrotermes subhyalinus ovary mitochondria assessed as ADP/O ratio at 100 uM.
The subject of test [3] is Macrotermes subhyalinus. Put plainly: Effect on oxygen consumption in Macrotermes subhyalinus ovary mitochondria assessed as inhibition of state 3 respiration assessed oxygen atom per mg protein per min at 100 uM by polarographic analysis.
Test [4] relates to Macrotermes subhyalinus. Description: Effect on oxygen consumption in Macrotermes subhyalinus ovary mitochondria assessed as inhibition of state 4 respiration assessed oxygen atom per mg protein per min at 100 uM by polarographic analysis.
Test [5] has as its system Macrotermes subhyalinus. Put plainly: Effect on phosphorylation rate in Macrotermes subhyalinus ovary mitochondria assessed as nmoles ATP synthesized per mg protein per min at 100 uM.
The test system of test [6] is Macrotermes subhyalinus. Put plainly: Effect on oxygen consumption in Macrotermes subhyalinus ovary mitochondria assessed as inhibition of state 4U respiration assessed oxygen atom per mg protein per min at 100 uM in presence of 2,4-dinitrophenol by polarographic analysis.
Test [7] relates to Macrotermes subhyalinus. Put plainly: Effect on oxygen consumption in Macrotermes subhyalinus ovary mitochondria assessed as inhibition of state 4U respiration assessed oxygen atom per mg protein per min at 250 uM in presence of 2,4-dinitrophenol by polarographic analysis.
In test [8] the test system is Macrotermes subhyalinus. Description: Inhibition of oxidative phosphorylation in Macrotermes subhyalinus ovary mitochondria assessed as respiratory control ratio assessed oxygen atom per mg protein per min at 250 uM.
Test [9] concerns Macrotermes subhyalinus. Description: Effect on phosphorylation rate in Macrotermes subhyalinus ovary mitochondria assessed as nmoles ATP synthesized per mg protein per min at 250 uM.
In test [10] the test system is Macrotermes subhyalinus. Put plainly: Effect on oxygen consumption in Macrotermes subhyalinus ovary mitochondria assessed as inhibition of state 3 respiration assessed oxygen atom per mg protein per min at 250 uM by polarographic analysis.
In test [11] the test system is Macrotermes subhyalinus. Description: Inhibition of oxidative phosphorylation in Macrotermes subhyalinus ovary mitochondria assessed as ADP/O ratio at 250 uM.
For test [12], the system named is Macrotermes subhyalinus. Description: Effect on oxygen consumption in Macrotermes subhyalinus ovary mitochondria assessed as inhibition of state 4 respiration assessed oxygen atom per mg protein per min at 250 uM by polarographic analysis.

For `C=C1C(=O)[C@]23[C@H](O)[C@H]1CC[C@H]2[C@@]12CO[C@]3(O)[C@@H](O)[C@@H]1C(C)(C)CC[C@@H]2O`, the Ratio in [1] is 3.63; in test [2], 1.33. For the same compound, the Activity came to 118 in test [3], 32.4 in [4], 156 in [5] and 106 in test [6].

Take `C=C1C(=O)[C@]23C[C@H]1CC[C@H]2[C@@]12CO[C@@H](O)[C@@H]1C(C)(C)[C@@H](O)C[C@@H]2OC3=O`: the Ratio came to 3.41 in [1] and 1.62 in [2]. For the same compound, the Activity in [3] was determined as 115; in test [4], 33.6; in test [5] it was 186; in test [6], 104.

For `C=C1C(=O)[C@]23C[C@H]1C[C@@H](O)[C@H]2[C@@]12CO[C@@H](O)[C@@H]1C(C)(C)CC[C@@H]2OC3=O`, the Activity in test [7] came out at 61.8; in test [9], 170; in test [10] it was 94.8; in test [12] it was 41.2. Besides, the Ratio in [8] came out at 2.3; in test [11] it was 1.79.

For the compound `C=C1C(=O)[C@]23C[C@H]1C[C@H](O)[C@H]2[C@]1(COC(C)=O)[C@H](CCC(C)(C)[C@H]1C=O)OC3=O`, the Ratio in test [1] worked out at 2.66; in [2] it was 1.03. The Activity is 118 in test [3], 44.2 in [4], 121 in test [5] and 41.2 in test [6].
